Measured values: ChEMBL document CHEMBL3991601, “The target landscape of clinical kinase drugs” (Science, 2017)
Counter-ions that a name gives are not always drawn. The source made the active and inactive calls.

Assays:
[1] = biological target: T1, Receptor-type tyrosine-protein kinase FLT3 (Homo sapiens, UniProt P36888)
T1 sequence (P36888 whole entry): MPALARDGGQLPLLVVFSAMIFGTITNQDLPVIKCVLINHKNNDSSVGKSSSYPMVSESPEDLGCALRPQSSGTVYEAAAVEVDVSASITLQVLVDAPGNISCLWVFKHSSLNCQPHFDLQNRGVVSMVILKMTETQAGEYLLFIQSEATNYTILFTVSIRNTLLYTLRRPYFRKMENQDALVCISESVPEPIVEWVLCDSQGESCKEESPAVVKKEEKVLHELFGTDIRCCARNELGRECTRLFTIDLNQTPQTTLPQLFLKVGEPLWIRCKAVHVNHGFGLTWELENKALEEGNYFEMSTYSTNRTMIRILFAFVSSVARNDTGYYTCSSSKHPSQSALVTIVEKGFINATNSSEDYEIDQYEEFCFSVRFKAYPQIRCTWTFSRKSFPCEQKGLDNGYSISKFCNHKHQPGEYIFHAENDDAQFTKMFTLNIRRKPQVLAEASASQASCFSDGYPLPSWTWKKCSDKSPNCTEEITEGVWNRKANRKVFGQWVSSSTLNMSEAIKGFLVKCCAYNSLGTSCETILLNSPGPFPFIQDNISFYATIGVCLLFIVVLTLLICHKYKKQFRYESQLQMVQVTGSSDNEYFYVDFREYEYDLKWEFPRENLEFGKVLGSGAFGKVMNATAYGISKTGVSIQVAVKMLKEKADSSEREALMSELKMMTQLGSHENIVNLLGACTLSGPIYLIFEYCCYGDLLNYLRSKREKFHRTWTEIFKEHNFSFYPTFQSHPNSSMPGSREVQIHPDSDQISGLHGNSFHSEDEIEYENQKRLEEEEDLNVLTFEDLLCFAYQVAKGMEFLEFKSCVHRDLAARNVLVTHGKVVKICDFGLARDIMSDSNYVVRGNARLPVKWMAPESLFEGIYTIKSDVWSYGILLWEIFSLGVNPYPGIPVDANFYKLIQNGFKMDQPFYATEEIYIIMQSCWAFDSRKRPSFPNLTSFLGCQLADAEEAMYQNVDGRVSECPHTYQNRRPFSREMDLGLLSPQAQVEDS

[2] = biological target: T2, ADP/ATP translocase 3 (Homo sapiens, UniProt P12236)
T2 sequence (P12236 whole entry): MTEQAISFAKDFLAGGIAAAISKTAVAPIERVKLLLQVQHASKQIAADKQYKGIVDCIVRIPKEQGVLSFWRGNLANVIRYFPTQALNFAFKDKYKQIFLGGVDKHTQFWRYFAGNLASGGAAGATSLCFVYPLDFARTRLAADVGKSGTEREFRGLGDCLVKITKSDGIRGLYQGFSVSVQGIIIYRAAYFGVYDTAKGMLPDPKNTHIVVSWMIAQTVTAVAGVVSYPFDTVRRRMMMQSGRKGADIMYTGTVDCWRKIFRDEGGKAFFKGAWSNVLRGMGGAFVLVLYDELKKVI

[3] = biological target: Serine/threonine-protein kinase pim-1 (Homo sapiens, UniProt P11309)
Serine/threonine-protein kinase pim-1, sequence (P11309 whole entry): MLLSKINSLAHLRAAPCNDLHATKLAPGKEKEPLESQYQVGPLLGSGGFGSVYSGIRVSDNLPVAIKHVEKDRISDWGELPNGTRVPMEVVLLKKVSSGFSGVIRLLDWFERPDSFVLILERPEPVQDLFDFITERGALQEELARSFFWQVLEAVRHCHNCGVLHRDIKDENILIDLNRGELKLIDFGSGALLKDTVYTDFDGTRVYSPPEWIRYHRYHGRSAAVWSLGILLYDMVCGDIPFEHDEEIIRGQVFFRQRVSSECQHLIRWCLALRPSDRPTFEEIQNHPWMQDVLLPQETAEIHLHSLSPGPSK

[4] = biological target: Ribosomal protein S6 kinase alpha-4 (Homo sapiens, UniProt O75676)
Ribosomal protein S6 kinase alpha-4, sequence (O75676 whole entry): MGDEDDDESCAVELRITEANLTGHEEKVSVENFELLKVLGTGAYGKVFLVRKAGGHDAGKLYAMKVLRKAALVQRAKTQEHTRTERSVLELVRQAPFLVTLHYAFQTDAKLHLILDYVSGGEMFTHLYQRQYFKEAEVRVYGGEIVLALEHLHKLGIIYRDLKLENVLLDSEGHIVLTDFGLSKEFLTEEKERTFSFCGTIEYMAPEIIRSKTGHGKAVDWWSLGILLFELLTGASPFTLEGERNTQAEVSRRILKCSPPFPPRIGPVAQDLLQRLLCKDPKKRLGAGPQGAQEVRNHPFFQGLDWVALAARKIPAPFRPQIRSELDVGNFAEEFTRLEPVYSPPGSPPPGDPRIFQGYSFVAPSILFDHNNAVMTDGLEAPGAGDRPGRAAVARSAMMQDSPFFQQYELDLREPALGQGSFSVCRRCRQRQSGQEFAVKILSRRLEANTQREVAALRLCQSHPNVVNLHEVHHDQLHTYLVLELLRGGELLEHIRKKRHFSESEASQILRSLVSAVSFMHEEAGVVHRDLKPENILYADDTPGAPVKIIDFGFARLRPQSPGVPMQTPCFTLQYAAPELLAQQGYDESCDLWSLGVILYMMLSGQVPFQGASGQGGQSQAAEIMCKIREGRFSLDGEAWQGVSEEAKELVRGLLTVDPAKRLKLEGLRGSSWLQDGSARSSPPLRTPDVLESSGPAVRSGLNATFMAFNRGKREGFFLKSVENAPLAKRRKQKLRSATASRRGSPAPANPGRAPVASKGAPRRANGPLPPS

[5] = biological target: T3, Cysteine--tRNA ligase, cytoplasmic (Homo sapiens, UniProt P49589)
T3 sequence (P49589 whole entry): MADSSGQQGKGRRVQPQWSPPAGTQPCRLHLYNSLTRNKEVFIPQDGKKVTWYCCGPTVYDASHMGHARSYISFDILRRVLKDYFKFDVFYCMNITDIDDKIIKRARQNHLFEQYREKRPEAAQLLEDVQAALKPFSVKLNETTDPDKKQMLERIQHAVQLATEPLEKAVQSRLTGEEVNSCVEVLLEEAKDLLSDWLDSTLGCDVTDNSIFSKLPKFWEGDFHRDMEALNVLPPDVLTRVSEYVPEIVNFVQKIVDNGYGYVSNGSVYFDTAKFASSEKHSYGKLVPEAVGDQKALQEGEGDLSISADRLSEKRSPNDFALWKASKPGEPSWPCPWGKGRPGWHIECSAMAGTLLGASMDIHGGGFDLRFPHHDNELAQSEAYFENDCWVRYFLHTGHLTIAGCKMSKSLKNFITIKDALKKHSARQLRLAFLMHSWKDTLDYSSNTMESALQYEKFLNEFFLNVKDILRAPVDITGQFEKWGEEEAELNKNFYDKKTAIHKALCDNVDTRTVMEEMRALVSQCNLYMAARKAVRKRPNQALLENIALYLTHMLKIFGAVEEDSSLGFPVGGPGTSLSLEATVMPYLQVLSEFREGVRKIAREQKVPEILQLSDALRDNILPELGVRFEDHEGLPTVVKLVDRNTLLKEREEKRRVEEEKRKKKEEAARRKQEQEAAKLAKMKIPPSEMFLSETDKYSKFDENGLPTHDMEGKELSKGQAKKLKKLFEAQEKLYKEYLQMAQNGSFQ
Also: in the data inactive means no Kd found up to 30 µM.

Row | Kd [1] | Kd [2] | Kd [3] | Kd [4] | Kd [5] | Compound
1 | > 30 µM (inactive) | > 30 µM (inactive) | > 30 µM (inactive) | > 30 µM (inactive) | – | C[C@@H](Oc1cc(C(=O)Nc2ccc(C(=O)N3CCN(C)CC3)cc2)nnc1N)c1c(Cl)ccc(F)c1Cl
2 | > 30 µM (inactive) | > 30 µM (inactive) | > 30 µM (inactive) | > 30 µM (inactive) | – | C[C@H]1CNCCCN1S(=O)(=O)c1cccc2cncc(F)c12
3 | – | > 30 µM (inactive) | – | – | > 30 µM (inactive) | COc1cc(Nc2ncc3c(n2)-c2ccc(Cl)cc2C(c2c(F)cccc2OC)=NC3)ccc1C(=O)O [ALISERTIB]
4 | > 30 µM (inactive) | > 30 µM (inactive) | > 30 µM (inactive) | 2.07 µM (active) | – | Cc1csc(-c2nnc(Nc3ccc(Oc4ncccc4-c4ccnc(N)n4)cc3)c3ccccc23)c1 [AMG-900]
5 | – | > 30 µM (inactive) | > 30 µM (inactive) | – | > 30 µM (inactive) | O=C(Nc1c[nH]nc1-c1nc2cc(CN3CCOCC3)ccc2[nH]1)NC1CC1 [AT-9283]
6 | > 30 µM (inactive) | > 30 µM (inactive) | > 30 µM (inactive) | > 30 µM (inactive) | – | C=CC(=O)Nc1cc2c(Nc3ccc(F)c(Cl)c3)ncnc2cc1C#CC(C)(C)N1CCN(C)CC1 [AV-412 FREE BASE]
7 | – | > 30 µM (inactive) | – | – | > 30 µM (inactive) | CNC(=O)c1ccccc1Sc1ccc2c(/C=C/c3ccccn3)n[nH]c2c1 [AXITINIB]
8 | 1.5 µM (active) | > 30 µM (inactive) | > 30 µM (inactive) | > 30 µM (inactive) | – | CCS(=O)(=O)N1CCN(c2ccc(Nc3ncc(C(N)=O)c(NC4CC4)n3)cc2)CC1 [Cerdulatinib Hydrochloride]
9 | > 30 µM (inactive) | > 30 µM (inactive) | > 30 µM (inactive) | > 30 µM (inactive) | – | Cc1nc2cc(-n3ncc(C(=O)c4cc5ccccc5[nH]4)c3N)ccc2[nH]1 [FGFR INHIBITOR DEBIO 1347]
10 | – | > 30 µM (inactive) | – | – | > 30 µM (inactive) | C[C@@H](Oc1cc(-n2cnc3ccc(CN4CCN(C)CC4)cc32)sc1C(N)=O)c1ccccc1C(F)(F)F [GSK-461364]
11 | – | > 30 µM (inactive) | > 30 µM (inactive) | > 30 µM (inactive) | > 30 µM (inactive) | CCn1cc(-c2ccnc3[nH]c(-c4cccc(CN(C)C)c4)cc23)c(-c2ccc(NC(=O)N(C)C)cc2)n1 [GSK-1070916]
12 | > 30 µM (inactive) | > 30 µM (inactive) | > 30 µM (inactive) | > 30 µM (inactive) | – | COc1ccc(S(=O)(=O)N(C(C)=O)c2ccccc2/C=C/c2cc[n+]([O-])cc2)cc1 [HMN-214]
13 | > 30 µM (inactive) | > 30 µM (inactive) | – | > 30 µM (inactive) | – | COc1ncc(-c2ccc3nccc(-c4ccnnc4)c3c2)cc1NS(=O)(=O)c1ccc(F)cc1F [OMIPALISIB]
14 | – | > 30 µM (inactive) | – | 1.39 µM (active) | > 30 µM (inactive) | Cc1[nH]c(/C=C2\C(=O)Nc3ccccc32)c(C)c1CCC(=O)O [ORANTINIB]
15 | – | > 30 µM (inactive) | – | – | – | NC(=O)c1c(OCc2c(F)cc(Br)cc2F)nsc1NC(=O)NCCCCN1CCCC1 [OSI-632]
16 | 1.44 µM (active) | > 30 µM (inactive) | > 30 µM (inactive) | – | > 30 µM (inactive) | Cc1nc(Nc2n[nH]c3c2CN(C(=O)N[C@H](CN(C)C)c2ccccc2)C3(C)C)c2sccc2n1 [PF-03758309]
17 | – | > 30 µM (inactive) | – | 0.156 µM (active) | > 30 µM (inactive) | CC(=O)NCC(=O)N1[C@@H]2CC[C@H]1c1ccc(Nc3ncc(C(F)(F)F)c(NC4CCC4)n3)cc12 [PF-03814735]
18 | > 30 µM (inactive) | > 30 µM (inactive) | > 30 µM (inactive) | > 30 µM (inactive) | – | CO[C@H]1C[C@@H]2CC[C@@H](C)[C@@](O)(O2)C(=O)C(=O)N2CCCC[C@H]2C(=O)O[C@H]([C@H](C)C[C@@H]2CC[C@@H](OP(C)(C)=O)[C@H](OC)C2)CC(=O)[C@H](C)/C=C(\C)[C@@H](O)[C@@H](OC)C(=O)[C@H](C)C[C@H](C)/C=C/C=C/C=C/1C [RIDAFOROLIMUS]
19 | – | > 30 µM (inactive) | – | – | > 30 µM (inactive) | O=C(NOCCO)c1cc(CN2OCCCC2=O)c(F)c(F)c1Nc1ccc(I)cc1F [RO-4987655]
20 | – | > 30 µM (inactive) | – | – | > 30 µM (inactive) | N#CC[C@H](C1CCCC1)n1cc(-c2ncnc3[nH]ccc23)cn1 [RUXOLITINIB]
21 | > 30 µM (inactive) | > 30 µM (inactive) | 19.3 µM (active) | 3.41 µM | – | Cn1cc(-c2cnn3c(N)c(Br)c([C@@H]4CCCNC4)nc23)cn1 [SCH-900776]
22 | 0.554 µM | > 30 µM (inactive) | > 30 µM (inactive) | 3 µM (active) | – | CCS(=O)(=O)c1cccc(-c2cc(C(=O)NC3CCN(C)CC3)c(C)c3[nH]c4ncc(C)cc4c23)c1 [TAK-901]
23 | > 30 µM (inactive) | > 30 µM (inactive) | > 30 µM (inactive) | > 30 µM (inactive) | – | Cn1ncc(Cl)c1-c1cc(C(=O)N[C@H](CN)Cc2ccc(F)c(F)c2)oc1Cl [UPROSERTIB]
24 | > 30 µM (inactive) | > 30 µM (inactive) | > 30 µM (inactive) | > 30 µM (inactive) | – | C[C@@H](N)c1ccc(C(=O)Nc2ccnc3[nH]ccc23)cc1 [Y-39983]

Row | Compound | Kd [1] | Kd [2] | Kd [3] | Kd [4] | Kd [5]
25 | CC(=O)c1cnc2ccc(-c3cc(Cl)c(O)c(Cl)c3)nc2c1N[C@H]1CC[C@H](CN(C)C)CC1 | > 30 µM (inactive) | > 30 µM (inactive) | 0.014 µM (active) | 0.111 µM (active) | > 30 µM (inactive)
26 | NC(=O)Nc1cc(-c2cccc(F)c2)sc1C(=O)N[C@H]1CCCNC1 [AZD-7762] | > 30 µM (inactive) | > 30 µM (inactive) | > 30 µM (inactive) | 0.879 µM (active) | –
27 | CC(C)(C)c1nc(-c2cccc(NS(=O)(=O)c3c(F)cccc3F)c2F)c(-c2ccnc(N)n2)s1 [DABRAFENIB] | – | > 30 µM (inactive) | – | – | > 30 µM (inactive)
28 | Cn1cc(C2=C(c3cn(C4CCN(Cc5ccccn5)CC4)c4ccccc34)C(=O)NC2=O)c2ccccc21 [ENZASTAURIN] | – | > 30 µM (inactive) | – | – | > 30 µM (inactive)
29 | O=C(Nc1nc2cccc(-c3ccc(CN4CCS(=O)(=O)CC4)cc3)n2n1)C1CC1 [FILGOTINIB] | > 30 µM (inactive) | > 30 µM (inactive) | > 30 µM (inactive) | > 30 µM (inactive) | –
30 | O=C(Nc1cc(C(F)(F)F)cc(C(F)(F)F)c1)c1cc(Cl)ccc1O [IMD-0354] | – | > 30 µM (inactive) | – | > 30 µM (inactive) | > 30 µM (inactive)
31 | CNC(=O)c1cc(Oc2ccc(NC(=O)Nc3cc(C(C)(C)C)nn3-c3ccc4ncccc4c3)c(F)c2)ccn1 [REBASTINIB] | – | > 30 µM (inactive) | > 30 µM (inactive) | 12.8 µM | –
32 | CN1CCN(CCOc2cc(OC3CCOCC3)c3c(Nc4c(Cl)ccc5c4OCO5)ncnc3c2)CC1 [SARACATINIB] | 0.14 µM | > 30 µM (inactive) | > 30 µM (inactive) | > 30 µM (inactive) | –
